# Reference: US11091437B2, “Aryl isonitriles as a new class of antimicrobial compounds” (Purdue Research Foundation, priority 2015, dated 2021)
# Like-named read-outs stand apart in the source and are kept apart here.
# Legend:
# MRSA = assay: MIC by broth microdilution against MRSA, VISA and VRSA strains; type: cell-based, Staphylococcus aureus; details: for antimicrobial activity (in words): MRSA strains tested
# Experimental: The bacterial growth inhibiting activity of these synthetic analogs of hit compound 1 were subsequently evaluated (FIG. 3).
# The minimum inhibitory concentration (MIC) of each compound and linezolid was determined against eight different strains of MRSA, VISA, and VRSA using a modified version of the broth microdilution method, outlined by the CLSI. Institute CaLS, Methods for Dilution Antimicrobial Susceptibility Tests for Bacteria That Grow Aerobically—Seventh Edition: Approved Standard M7-A7. 7 ed. Wayne, Pa. 2011. The same analysis was performed with vancomycin against the VISA and VRSA strains tested. A bacterial suspension (˜1 Å˜10^5 CFU/mL) was prepared in Tryptic soy broth (TSB) and then transferred to a microtiter plate. Each agent tested was added (in triplicate) to wells in the first row of the plate and then serially diluted downward.
# [1] = tested on: S. aureus exhibiting resistance to vancomycin (VRS2); assay: MIC by broth microdilution against vancomycin-resistant S. aureus; type: cell-based; details: Staphylococcus aureus; vancomycin-resistant clinical isolate VRS2
# [2] = tested on: murine macrophage (J774) cell line; assay: MTS toxicity assay against mammalian cells
# Caco-2 cell monolayer = details: human
# [3] = human, microsomes, 1 h
# physchem = details: aqueous buffer, kinetic from dmso stock
# MRSA USA300 = assay: whole-cell screening of in house small molecules; type: cell-based, Staphylococcus aureus; details: MRSA USA300, whole-cell screening hit
# Text: A whole-cell screening of a small number of in house generated small molecules with diverse structural skeletons (about 250 molecules) has been conducted against MRSA USA300 with the aim to identify compounds with novel skeletons to target antibiotic drug resistance. […] Marconi, G. G. et al., J. Antibiot, 1978, 31, 27-32; Mo, S. et al., J. Nat. Prod. 2009, 72, 894-899; Raveh, A. et al., J. Nat. Prod. 2007, 70, 196-201; Sugawara, T. et al., J. Antibiot, 1997, 50, 944-948; Fujiwara, A. et al., Agric. Biol. Chem. 1982, 46, 1803-1809, Marquez, J. A. et al., J. Antibiot, 1983, 36, 1101-1108. The novel structural skeleton of compound 1 as an antibacterial compound against drug resistant strains prompted further study of these types of isonitrile compounds. Herein is reported the chemical synthesis, structure-activity relationship study, and evaluation of the antibacterial performance of compound 1 and closely related analogs against several clinically-relevant MRSA and VRSA strains.
# in vitro = details: human, Caco-2
# [4] = Staphylococcus aureus, broth microdilution, over the MRSA strains tested, read-out: MIC against MRSA
smiles,measurement,setting,value
"[C-]#[N+]c1ccccc1CCc1ccccc1 [Compound 53, 1-isocyano-2-phenethylbenzene]",potency relative to compound 13,MRSA; all strains tested except VISA NRS1,less potent
same,"activity against MRSA USA100, MRSA USA300, MRSA NRS119 and VISA NRS1","MRSA; strains USA100, USA300, NRS119, VISA NRS1",active
"[C-]#[N+]c1ccc(/C=C/c2ccncc2)cc1 [Compound 35, (E)-4-(4-isocyanostyryl)pyridine]",activity relative to ortho- and meta-substituted 33 and 34,MRSA; all the strains tested,much more active
same,MIC,[1],2 to 16 µM
"[C-]#[N+]c1ccc(C)cc1-c1ccc(C(F)(F)F)cc1 [Compound 50, 2-isocyano-5-methyl-4′(trifluoromethyl)-1,1′-biphenyl]",antimicrobial activity (in words),MRSA; broth microdilution,loss in antimicrobial activity
"[C-]#[N+]c1ccccc1/C=C/c1ccc(CCCC)cc1 [Compound 24, (E)-1-(4-butylstyryl)-2-isocyanobenzene]",MIC,"MRSA; Staphylococcus aureus, MRSA, read-out: MIC against most MRSA strains tested",> 128 µM
"[C-]#[N+]c1ccccc1/C=C/c1cccnc1 [Compound 30, (E)-3-(2-isocyanostyryl)pyridine]",antimicrobial activity (in words),MRSA; broth microdilution,reduced antimicrobial activities
same,toxicity to J774 cells at 128 μM,[2],not toxic
"[C-]#[N+]c1ccccc1/C=C/c1ccccc1 [Compound 13, (E)-1-isocyano-2-styrylbenzene]",MIC,MRSA; [4],≥ 2 µM
same,reduction in the MIC against MRSA relative to compound 1,MRSA; removal of the ethyl group of 1,two-to-eight
same,"apparent permeability Papp, apical (A) to basolateral (B)",Caco-2 cell monolayer,0.0 cm/sec
same,"apparent permeability Papp, basolateral to apical",Caco-2 cell monolayer,0.0 cm/sec
same,parent compound remaining after one hour,[3],24%
same,"parent compound remaining after one hour, NADPH not present",[3],51%
same,solubility,physchem,1 to 100 µM
same,concentration up to which not toxic to mammalian cells,[2]; J774 cells,64 µM
"[C-]#[N+]c1ccccc1C=C1CCCCC1 [Compound 26, 1-(cyclohexylidenemethyl)-2-isocyanobenzene]","activity against MRSA USA300, MRSA USA500 and MRSA NRS119","MRSA; strains USA300, USA500, NRS119",inactive
"[C-]#[N+]c1ccccc1/C=C(\CC)c1ccc(C(F)(F)F)cc1 [Compound 10, (E)-1-isocyano-2-(2-(4-(trifluoromethyl)phenyl)but-1-en-1-yl)benzene]",MIC,[1],2 to 16 µM
"[C-]#[N+]c1ccccc1/C=C/c1cccc(OC)c1 [Compound 15, (E)-1-isocyano-2-(3-methoxystyryl)benzene]",toxicity to J774 cells at 128 μM,[2],not toxic
"[C-]#[N+]c1ccccc1/C=C/c1ccncc1 [Compound 33, (E)-4-(2-isocyanostyryl)pyridine]",antimicrobial activity (in words),MRSA; broth microdilution,reduced antimicrobial activities
"[C-]#[N+]c1ccccc1/C=C/c1cccc(F)c1 [Compound 19, (E)-1-(3-fluorostyryl)-2-isocyanobenzene]",toxicity to J774 cells at 64 μM,[2],toxic
"[C-]#[N+]c1ccccc1/C=C(\CC)c1ccccc1 [Compound 1, (E)-1-isocyano-2-(2-phenylbut-1-en-1-yl)benzene]",concentration inhibiting bacterial growth,MRSA USA300,32 µM
same,MIC,MRSA; [4],8 to 64 µM
CC(=O)CC(c1ccccc1)c1c(O)c2ccccc2oc1=O (stereo not shown) [warfarin],Papp B→A,in vitro,27 ×10⁻⁶ cm/s
"[C-]#[N+]c1ccccc1/C=C/c1ccc([N+](=O)[O-])cc1 [Compound 25, (E)-1-isocyano-2-(4-nitrostyryl)benzene]",MIC,[1],2 to 16 µM
same,toxicity to J774 cells at 32 μM,[2]; 32 μM,toxic
same,toxicity to J774 cells at 64 μM,[2],toxic
[C-]#[N+]c1ccccc1/C=C(\CC)c1cccc(C(F)(F)F)c1 [Compound 12],toxicity to J774 cells at 64 μM,[2],toxic
"[C-]#[N+]c1ccccc1CP(=O)(OCC)OCC [Compound 4a, diethyl (2-isocyanobenzyl)phosphonate]",MIC,"MRSA; broth microdilution, over the MRSA strains tested, read-out: MIC against MRSA",> 128 µM
"[C-]#[N+]c1ccccc1/C=C/c1ccccn1 [Compound 27, (E)-2-(2-isocyanostyryl)pyridine]",antimicrobial activity (in words),MRSA; broth microdilution,reduced antimicrobial activities
"[C-]#[N+]c1ccc(/C=C/c2ccccc2)cc1 [Compound 37, (E)-1-isocyano-4-styrylbenzene]",activity relative to ortho-substituted compound 13,MRSA; MSSA (NRS72) and MRSA USA500,slight improvement
same,toxicity to J774 cells at 128 μM,[2],not toxic
"[C-]#[N+]c1ccccc1/C=C/c1ccc(C)cc1 [Compound 23, (E)-1-isocyano-2-(4-methylstyryl)benzene]",MIC,MRSA; [4],4 to 64 µM
"[C-]#[N+]c1ccc(/C=C/c2cccnc2)cc1 [Compound 32, (E)-3-(4-isocyanostyryl)pyridine]",MIC,[1],2 to 16 µM
